Results as given in patent publication US20250230226A1, “PLXDC1/PLXDC2 ACTIVATORS AND THEIR USE IN THE TREATMENT OF BLOOD VESSEL DISORDERS” (THE REGENTS OF THE UNIVERSITY OF CALIFORNIA, priority 2019, published 2025).

System: LL/2 lung cancer tumor endothelial cells
Assay: Lung LL2 ex vivo model of tumor angiogenesis
Assay type: cell-based, mouse
Details: for 48 hrs (morphology observations): LL/2 tumor endothelial cells; for Cell death: drug treatment for two days, ratio of red area to total endothelial cell area; for cytotoxicity at 40 µM / cytotoxicity at 20 µM: Mus musculus, Endothelial cell, 48 h, read-out: Cell death
Method: An ex vivo tumor angiogenesis model was developed to test the efficacy of anti-cancer candidate agents. The following protocol describes the Ex Vivo Tumor Angiogenesis Model.
• 1. The day before the experiment, all necessary tools were sprayed with 70% ethanol and sterilized under UV light overnight, including blade, dissecting and micro-dissecting scissors and […]. 24-well dishes were placed at 4° C. to pre-chill plates and Matrigel was thawed, 24 hours before tumor dissection. • 2. 70% ethanol was sprayed on working bench. Two sterile petri dishes were prepared with 10 ml sterile PBS. The following steps 3 and 4 are necessary for mouse tumor models. For fresh human tumor, steps 3 and 4 are skipped. • 3. The tumor-bearing mice were euthanized. 70% ethanol was sprayed on the mouse and the tumor was removed using sterilized dissecting tools (avoid the fur). The tumor was rinsed in petri dish with sterile PBS to remove ethanol and fur. The tumor was transferred to a new petri dish with PBS for dissection. The dish is placed on ice. • 4. Pre-chilled sterile pipet tips were used to seed regular Matrigel in 24 well plates on ice. Matrigel (30 μl) was dropped in the middle of each well without touching the edge of the well (avoid introducing bubbles if possible). • 5. The tumor was cut in halves using the sterile blade. Healthy tumor tissue that is not necrotic and is within the tumor capsule was identified and isolated. The healthy tumor tissue was cut into small pieces. For instance, a suitable size for the tumor tissue is 0.5 mm (H)×0.5 mm (L)×0.3 mm (D) with a total volume of 0.075 mm^3. • 6. Each tumor piece was gently transferred and embedded in the Matrigel drop in the 24-well plate. The embedded piece was placed in the bottom and middle of each Matrigel drop. The plate was kept on ice all the time. • 7. After seeding the tumor pieces, plates were incubated in a 37° C. cell culture incubator without medium for 10 minutes in order for the Matrigel to solidify. • 8. Endothelial Growth Medium (0.5 ml) was added to each well and incubated at 37° C. with 5% CO2. Treatment was not added until the new endothelial cells was grown out of the tumor or were larger than 3 mm in diameter. This usually takes 4 days for the LL2 Lewis lung cancer model and 7 days for the CT26 colon cancer model. For human tumor models, the growth time is typically 2-3 weeks, depending on the tumor type. Media was changed every 4 days during prolonged culture. Typically, when the tumor tissue grows to 2 mm in diameter, it was good for drug testing. A size of about 3 mm in diameter can make visualization easier. • 9. When the assay was ready to be analyzed for cell death (e.g., 48 hours after drug addition), the dye mixture was prepared by mixing 6 μl of green dye to stain live cells (5 mg/ml Fluorescein diacetate or FDA in DMSO) with 30 μl of red dye (2.5 mg/ml Propidium iodide or PI in PBS) to stain dead cells in an Eppendorf tube. The FDA dye needs to be stored frozen in a −20° C. freezer because it has a labile ester bond. • 10. 1 μl of the dye mixture was added to each well of the 24-well dish. It is usually preferred to do one 24-well dish at a time given the amount of time needed to take pictures (the green dye is not as stable in the cells in the long term). • 11. The dish was gently rocked a few times to mix the dye with the media in the wells and incubate the dish at 37° C. for 10 min (too long incubation can make the green signal too intense). • 12. Each well was washed with 0.5 ml of sterile PBS and then 0.5 ml of phenol red free SFM was added to each well. Alternatively 0.5 ml of regular Endothelial Cell Growth Media can be added to each well if this well needs to be continuously maintained after the experiment. • 13. An inverted microscope using the 2× objective lens was used to observe morphological changes in the experimental wells. • 14. […]

| Structure (SMILES) | 48 hrs (morphology observations) (40 μm) | Cell death (40 μm) | 48 hrs (morphology observations) (20 μm) | Cell death (20 μm) | further results |
| --- | --- | --- | --- | --- | --- |
| CCCCCCCCCCOc1ccc(S(=O)(=O)c2cnc3ccc([S+](C)[O-])cc3c2N2CCC(N3CCN(C)CC3)CC2)cc1 (stereo not drawn) [Compound 264] |  |  |  |  | 48 hrs (morphology observations) (10 μm): * (50% or less of cells vesicularize in cell shape); Cell death (10 μm): 20% |
| CCCCOc1ccc(S(=O)(=O)c2cnc3ccc(C(=O)OCC)cc3c2N2CCN(c3ccc(F)cc3)CC2)cc1 [Compound 213] | 0 |  |  |  | cytotoxicity at 40 µM: 30% |
| COc1ccc(S(=O)(=O)c2cnc3ccc(SC)cc3c2NN2CCN(C)CC2)cc1 [Compound 226] | * (50% or less of cells vesicularize in cell shape) | 10% |  |  |  |
| CCCCOc1ccc(S(=O)(=O)c2cnc3ccc([S+](C)[O-])cc3c2N2CCC(N3CCOCC3)CC2)cc1 (stereo not drawn) [Compound 235] | 0 | 10% |  |  |  |
| COc1ccc(S(=O)(=O)c2cnc3cc(OC)c(OC)cc3c2N2CCCN(C3CCSCC3)CC2)cc1 [Compound 329] | *** (more than 50% but less than 100% of endothelial cells vesicularize in cell shape) | 40% |  |  |  |
| COc1ccc(S(=O)(=O)c2cnc3ccc(CC#N)cc3c2N2CCC(N3CCCCC3)CC2)cc1 [Compound 115] |  |  | 0 |  | cytotoxicity at 20 µM: 10% |
| CCCCOc1ccc(S(=O)(=O)c2cnc3ccc(C(=O)OCC)cc3c2N2CC[S+]([O-])CC2)cc1 [Compound 195] | 0 |  |  |  |  |
| CCCCCCCCCCOc1ccc(S(=O)(=O)c2cnc3ccc([S+](C)[O-])cc3c2N2CCC(N3CCCC(O)C3)CC2)cc1 (stereo not drawn) [Compound 265] |  |  |  |  | 48 hrs (morphology observations) (10 μm): * (50% or less of cells vesicularize in cell shape); Cell death (10 μm): 20% |
| COc1ccc(S(=O)(=O)c2cnc3ccc(OC(F)(F)F)cc3c2N2CCC(N3CCC(O)CC3)CC2)cc1 [Compound 113] |  |  | 0 |  | cytotoxicity at 20 µM: 10% |
| CCCCCCCCCCCCCCOc1ccc(S(=O)(=O)c2cnc3ccc([S+](C)[O-])cc3c2N2CCC(N3CCC(N4CCN(C)CC4)CC3)CC2)cc1F (stereo not drawn) [Compound 371] |  |  | *** (more than 50% but less than 100% of endothelial cells vesicularize in cell shape) | 30% |  |
| CCCCOc1ccc(S(=O)(=O)c2cnc3ccc(OC(F)(F)F)cc3c2N2CCSCC2)cc1 [Compound 187] | 0 | 30% |  |  |  |
| CCCCCCCCCCCCOc1ccc(S(=O)(=O)c2cnc3ccc([S+](C)[O-])cc3c2N2CCC(N3CCC(N4CCN(CCO)CC4)CC3)CC2)cc1 (stereo not drawn) [Compound 340] |  |  | *** (more than 50% but less than 100% of endothelial cells vesicularize in cell shape) | 60% |  |
| CCN(CC)CCCN1CCN(c2c(S(=O)(=O)c3ccc(OC)cc3)cnc3cc(OC)c(OC)cc23)CC1 [Compound 302] | 0 | 70% |  |  |  |
| CCCCCCCCCCCCOc1ccc(S(=O)(=O)c2cnc3ccc([S+](C)[O-])cc3c2N2CCC(N3CCC(N4CCC(O)CC4)CC3)CC2)cc1 (stereo not drawn) [Compound 374] |  |  |  | 20% |  |
| CCCCCCCOc1ccc(S(=O)(=O)c2cnc3ccc(SC)cc3c2N2CCC(N3CCN(CCO)CC3)CC2)cc1 [Compound 250] |  |  | *** (more than 50% but less than 100% of endothelial cells vesicularize in cell shape) | 90% |  |
| CCCCCCCCCCCCCCOc1ccc(S(=O)(=O)c2cnc3ccc([S+](C)[O-])cc3c2N2CCC(N3CCC(N4CCC(O)CC4)CC3)CC2)cc1 (stereo not drawn) [Compound 375] |  |  | * (50% or less of cells vesicularize in cell shape) | 50% |  |
| CCCCCCCCCCCCOc1ccc(S(=O)(=O)c2cnc3ccc([S+](C)[O-])cc3c2N2CCC(N3CCN(CCO)CC3)CC2)cc1 (stereo not drawn) [Compound 344] |  |  | * (50% or less of cells vesicularize in cell shape) |  | cytotoxicity at 20 µM: 10% |
| CCCCCCCOc1ccc(S(=O)(=O)c2cnc3ccc(SC)cc3c2N2CCCN(CCN3CCCCC3)CC2)cc1 [Compound 248] |  |  | * (50% or less of cells vesicularize in cell shape) | 60% |  |
| CCCCCCCOc1ccc(S(=O)(=O)c2cnc3ccc(SC)cc3c2N2CCC(N3CCC(N4CCCCC4)CC3)CC2)cc1 [Compound 251] |  |  | *** (more than 50% but less than 100% of endothelial cells vesicularize in cell shape) | 60% |  |
| CCCCCCCCCCCCCCOc1ccc(S(=O)(=O)c2cnc3ccc([S+](C)[O-])cc3c2N2CCC(N3CCC(N4CCCCC4)CC3)CC2)cc1F (stereo not drawn) [Compound 366] |  |  | 0 | 10% |  |
| CCCCCCCCCCOc1ccc(S(=O)(=O)c2cnc3ccc([S+](C)[O-])cc3c2N2CCC(N3CCC(N4CCN(CCO)CC4)CC3)CC2)cc1 (stereo not drawn) [Compound 292] |  |  |  |  | Cell death, read at 24 hrs (20 μm): 10%; Endothelial cell morphology score at 24 hrs (20 μm): * (50% or less of cells vesicularize in cell shape) |
| CCCCOc1ccc(S(=O)(=O)c2cnc3ccc(C(=O)OCC)cc3c2N2CCCN(CCN3CCCC3)CC2)cc1 [Compound 182] | **** (100% of endothelial cells vesicularize in cell shape and look flattened in morphology (indicating disintegration of the cell body)) | 100% |  |  |  |
| COc1ccc(S(=O)(=O)c2cnc3cc(OC)c(OC)cc3c2N2CCC(N3CCCCC3)CC2)cc1 [Compound 320] | 0 | 30% |  |  |  |
| CCCCCCCCCCOc1ccc(S(=O)(=O)c2cnc3ccc([S+](C)[O-])cc3c2N2CCC(N3CCC(N4CCOCC4)CC3)CC2)cc1 (stereo not drawn) [Compound 286] |  |  |  |  | Cell death, read at 24 hrs (20 μm): 0%; Endothelial cell morphology score at 24 hrs (20 μm): 0 |
| CCCCOc1ccc(S(=O)(=O)c2cnc3ccc(SC)cc3c2N2CCC(N3CCOCC3)CC2)cc1 [Compound 229] | 0 | 30% |  |  |  |
| CNC(=O)c1ccc2ncc(S(=O)(=O)c3ccc(OC)cc3)c(N3CCC(N4CCCCC4)CC3)c2c1 [Compound 143] | 0 |  |  |  | cytotoxicity at 40 µM: 40% |
| COc1ccc(S(=O)(=O)c2cnc3cc(OC)c(OC)cc3c2N2CCCN(CCO)CC2)cc1 [Compound 323] | 0 | 30% |  |  |  |
| COc1ccc(S(=O)(=O)c2cnc3cc(OC)c(OC)cc3c2N2CCCN(C3CCS(=O)(=O)CC3)CC2)cc1 [Compound 330] | *** (more than 50% but less than 100% of endothelial cells vesicularize in cell shape) | 50% |  |  |  |
| COc1ccc(S(=O)(=O)c2cnc3cc(OC)c(OC)cc3c2N2CCC(N3CCCC3CO)CC2)cc1 (stereo not drawn) [Compound 322] | 0 | 30% |  |  |  |
| CC(C)CCCC(C)CCOc1ccc(S(=O)(=O)c2cnc3ccc([S+](C)[O-])cc3c2N2CCC(N3CCC(N4CCCCC4)CC3)CC2)cc1 (stereo not drawn) [Compound 289] |  |  |  | 20% |  |
